Measurements: patent US20240285643A1, “TREATING INFLUENZA USING SUBSTITUTED POLYCYCLIC PYRIDONE DERIVATIVES AND PRODRUGS THEREOF IN A SUBJECT HAVING INFLUENZA AND A SEVERE INFLUENZA CONDITION” (Shionogi & Co., Ltd., priority 2019, published 2024)

Experiments:
[1] = test system: influenza type A virus A/Osaka/129/2009 and Streptococcus pneumoniae SR1326; assay type: in vivo, BALB/c mice; conditions: for mice survived: BXA 10 mg/kg sc single dose, OSP 10 mg/kg po bid 5 days, through 15 days
[2] = test system: influenza type A virus A/Osaka/129/2009 and Streptococcus pneumoniae SR1326; assay type: in vivo, BALB/c mice; conditions: for mice recovered from body weight loss and survived: BXA 10 mg/kg sc single dose, OSP 10 mg/kg po bid 5 days
[3] = SD, rat, in vivo
[4] = set-up: species or system rats; conditions: rat, po
Source text: FIGS. 1 and 2 show a result of measuring the plasma concentration of Compound (III) and Compound (II-6), respectively, after oral administration of prodrug Compound (II-6) to rats under non-fasting conditions.

clinical = conditions: human, in vivo
Procedure: Patients were administered up to three doses of baloxavir marboxil separated by 3 days (i.e., Days 1, 4, and 7). […] Likewise, total drug exposure simulated on Day 7 area under the plasma concentration-time curve for a dosing interval (AUCtau) was not expected to exceed area under the concentration-time curve from Time 0 to infinity (AUCinf) of the TQT, regardless of dose.

Molecule	mice survived [1]	mice recovered from body weight loss and survived [2]	BA (%) [3] [%]	further results
baloxavir marboxil [II-6]	–	–	–	body weight change after virus infection ([1]; 2-day delayed treatment, compared with vehicle, OSP or monotherapy): less reduction of body weight
CCOC(=O)C1=C[C@@H](OC(CC)CC)[C@H](NC(C)=O)[C@@H](N)C1 [OSP, Oseltamivir phosphate, reference compound]	all mice died	all mice died	–	survival time compared with vehicle treatment ([1]; 2-day delayed treatment, log rank test): significantly prolonged; efficacy on survival ([2]; mouse, in vivo): not effective
COC(=O)OCOc1c2n(ccc1=O)N([C@@H]1c3ccccc3SCc3c1ccc(F)c3F)[C@@H]1COCCN1C2=O [II-6, baloxavir marboxil]	–	–	14.9	conversion of prodrug to Compound (III) in vivo [4]: metabolized promptly to Compound (III)
O=C1c2c(O)c(=O)ccn2N([C@@H]2c3ccccc3SCc3c2ccc(F)c3F)[C@@H]2COCCN12 [III, baloxavir]	75%	40%	4.2	Cmax (clinical): 126 ng/mL; half-life (clinical): ~70 h
CC(=O)Oc1c2n(ccc1=O)N([C@@H]1c3ccccc3SCc3c1ccc(F)c3F)[C@@H]1COCCN1C2=O [II-4]	–	–	20.0	–
